For data set [1], the system named is PACA2 pancreatic cancer cells. Put plainly: MTT assay, PACA2. The following applies: Homo sapiens, PaCa-2, 72 h; for cytotoxicity at 100 µg/mL: read-out: MTT cell proliferation mortality assay (%) PACA2; for IC50: read-out: IC50 PACA2. The text has this: (§1) All of the following steps were done in a sterile Laminar flow class II biosafety cabinet (Baker, SG406INT, Sanford, ME, USA). DMEM was used as a suspension medium for breast cancer (MCF7), colorectal cancer (HCT116), prostate cancer (PC3), liver cancer (HePG2), pancreatic cancer (PACA2) and lung cancer (A549), while normal cell line (BJ1) was suspended in DMEM-F12 medium. The selected cell lines were purchased from American Type Culture Collection (ATCC). The media were supplemented with a 1% antimycotic-antibiotic mixture (10,000 µg/ml streptomycin sulfate, 25 µg/ml Amphotericin B, and 10,000 U/ml Potassium Penicillin) and 1% L-glutamine. 10 × 10^4cells/well were seeded in 96 well microtiter plates and incubated for 24 h at 37 ℃ under 5% carbon dioxide using a water-jacketed Carbon dioxide incubator (Sheldon, SCO5A, OR, USA). […] After the incubation time of 72 h, the medium was removed. Afterward, 40 µl MTT salt ([…]) was added to each well and kept for 4 h under the same conditions of 37 °C and 5% carbon dioxide. Finally, 200 μl of 10% Sodium dodecyl sulfate (SDS) in deionized water was added to each well and incubated overnight at 37 °C. The step of SDS addition was done to stop the reaction and dissolve the formed formazan crystals. The absorbance was then measured at a wavelength of 595 nm and the reference wavelength was set at 620 nm using a microplate multi-well reader (Bio-Rad Laboratories Inc., model 3356, California, USA). […] A statistical significance analysis was determined between the samples and the negative control using an independent t-test by SPSS 11 program. Dimethyl sulfoxide (DMSO) was the vehicle that dissolved our synthesized compounds and its concentration in the cells was less than 0.2%. IC50 values were calculated using the GraphPad Prism 6 program. The degree of selectivity of the synthetic compounds was expressed as SI = IC50 of a pure compound in a normal cell line/IC50 of the same pure compound in the cancer cell line, where IC50 is the concentration of the compound required to kill 50% of the cells.
Background: Tetrazolium dyes change colour on reduction, which living cells bring about.

A further data set relates to HePG2 liver cancer cells. As to the kind of experiment: MTT assay, HePG2. The following applies: Homo sapiens, HepG2, 72 h; for cytotoxicity at 100 µg/mL: read-out: MTT cell proliferation mortality assay (%) HePG2; for IC50: read-out: IC50 HePG2.
Description: as §1

For the next data set, the system named is MCF7 breast cancer cells. Put plainly: MTT assay, MCF7. Conditions: for cytotoxicity at 100 µg/mL / IC50: Homo sapiens, MCF7, 72 h; for cytotoxicity at 100 µg/mL / cytotoxicity: read-out: MTT cell proliferation mortality assay (%) MCF7; for IC50: read-out: IC50 MCF7; for cytotoxicity: at 100 μg/ml, 72 h.
Description: as §1

Data set [2] has as its system HCT116 colorectal cancer cells. As to the kind of experiment: MTT assay, HCT116. Conditions: for cytotoxicity at 100 µg/mL / IC50: Homo sapiens, HCT-116, 72 h; for cytotoxicity at 100 µg/mL: read-out: MTT cell proliferation mortality assay (%) HCT116, at 100 μg/ml, 72 h; for IC50: read-out: IC50 HCT116.
Description: as §1

The test system of another data set is A549 lung cancer cells. Put plainly: MTT assay, A549. The following applies: for cytotoxicity at 100 µg/mL: read-out: MTT cell proliferation mortality assay (%) A549, at 100 μg/ml, 72 h.
Description: as §1

Data set [3] has as its system PC3 prostate cancer cells. Put plainly: MTT assay, PC3. The following applies: Homo sapiens, 72 h; for cytotoxicity at 100 µg/mL: read-out: MTT cell proliferation mortality assay (%) PC3, at 100 μg/ml, 72 h; for IC50: read-out: IC50 PC3.
Description: as §1

Data set [4] is described as follows: MTT assay, normal cell line BJ1. The data set is classed as cell-based. Conditions: human, at 100 μg/ml, read-out: MTT cell proliferation mortality assay (%) BJ1.
Description: as §1

≈ marks a conversion by molar mass, not a printed value.

Consider `COc1ccc(-c2c(Cl)n(-c3ccc(Cl)cc3Cl)c3ncnc(OC)c23)cc1OC` [Compound 9b, 6-chloro-7-(2,4-dichlorophenyl)-5-(3,4-dimethoxyphenyl)-4-methoxy-7H-pyrrolo[2,3-d]pyrimidine], for which the cytotoxicity at 100 µg/mL in data set [1] worked out at 2.5 ± 0.3%; in the data set on HePG2 liver cancer cells, 63.8 ± 0.6%; in the data set with MCF7 breast cancer cells, 100%; in data set [2] it was 45.6 ± 3.2%.

Consider `Clc1ccc(-n2c(Cl)c(-c3ccc(Br)cc3)c3c(N4CCCC4)ncnc32)c(Cl)c1` [Compound 11a, 5-(4-bromophenyl)-6-chloro-7-(2,4-dichlorophenyl)-4-(pyrrolidin-1-yl)-7H-pyrrolo[2,3-d]pyrimidine], for which the cytotoxicity at 100 µg/mL with A549 lung cancer cells (Homo sapiens, A549, 72 h) came out at 11.8 ± 0.6%; in data set [3], 12.5 ± 1.4%; in data set [1], 84.3 ± 1.7%; in the data set on HePG2 liver cancer cells it was 7.2 ± 1.3%; with MCF7 breast cancer cells, 65.2 ± 1%; in data set [2], 44.2 ± 0.8%. In data set [1], the concentration for half-maximal inhibition (IC50) (as a rule, the midpoint of a concentration-inhibition curve) was 55.4 ± 1.4 µg/mL (≈ 106 µM). For the same compound, in data set [4], the cytotoxicity at 72 h, 100 μg/ml was 47.3 ± 1.3%.

For `COc1nc(C(Cl)(Cl)Cl)nc2c1c(-c1ccc(Br)cc1)c(Cl)n2-c1ccc(Cl)cc1Cl` [Compound 8, 5-(4-bromophenyl)-6-chloro-7-(2,4-dichlorophenyl)-4-methoxy-2-(trichloromethyl)-7H-pyrrolo[2,3-d]pyrimidine], the cytotoxicity at 100 µg/mL was 19.3 ± 1.2% in the data set on A549 lung cancer cells (Homo sapiens, A549, 72 h); 13.5 ± 1.5% in data set [3]; 100% in data set [1]; 100% in the data set on HePG2 liver cancer cells; 84.3 ± 2.5% with MCF7 breast cancer cells; 80 to 90% in data set [2]. For the same compound, the IC50 in data set [1] was determined as 23.5 ± 0.6 µg/mL (≈ 39.1 µM); with HePG2 liver cancer cells, 17.8 ± 1.3 µg/mL (≈ 29.6 µM); with MCF7 breast cancer cells, 48 ± 1.5 µg/mL (≈ 79.9 µM); in data set [2], 68.1 ± 1 µg/mL (≈ 113 µM). For the same compound, the cytotoxicity is 80 to 95% with MCF7 breast cancer cells and 80 ± 1% in data set [2] (read-out: MTT cell proliferation mortality assay (%) HCT116, at 100 μg/ml, 72 h). For the same compound, the cytotoxicity at 72 h, 100 μg/ml in data set [4] is 15.6 ± 2.8%.

With `Clc1ccc(-n2c(Cl)c(-c3ccc(Br)cc3)c3c(N4CCOCC4)nc(C(Cl)(Cl)Cl)nc32)c(Cl)c1` [Compound 19, 4-(5-(4-bromophenyl)-6-chloro-7-(2,4-dichlorophenyl)-2-(trichloromethyl)-7H-pyrrolo[2,3-d]pyrimidin-4-yl)morpholine], the cytotoxicity at 100 µg/mL in the data set on A549 lung cancer cells (Homo sapiens, A549, 72 h) is 5.6 ± 0.7%; in data set [3] it was 3.7 ± 1.1%; in data set [1] it was 31.2 ± 5.1%; with HePG2 liver cancer cells, 100%; with MCF7 breast cancer cells it was 62.3 ± 3.4%; in data set [2], 35.9 ± 1.5%. Further, in the data set with HePG2 liver cancer cells, the IC50 was 19.4 ± 0.8 µg/mL (≈ 29.6 µM). For the same compound, the cytotoxicity at 72 h, 100 μg/ml in data set [4] was determined as 52.7 ± 1.4%.

Turning to `CSc1ncnc2c1c(-c1ccc(Br)cc1)c(Cl)n2-c1ccc(Cl)cc1Cl` [Compound 13, 5-(4-bromophenyl)-6-chloro-7-(2,4-dichlorophenyl)-4-(methylthio)-7H-pyrrolo[2,3-d]pyrimidine], the cytotoxicity at 100 µg/mL was 42.6 ± 1.2% in the data set with A549 lung cancer cells (Homo sapiens, A549, 72 h); 32.2 ± 1.7% in data set [3]; 58.8 ± 1.2% in data set [1]; 12.4 ± 1.9% in the data set on HePG2 liver cancer cells; 3.5 ± 0.6% in the data set on MCF7 breast cancer cells; 60.2 ± 1% in data set [2]. In addition, the cytotoxicity at 72 h, 100 μg/ml in data set [4] was determined as 25.3 ± 0.4%.

Take `Cc1nc2c(c(-c3ccc(Br)cc3)cn2-c2ccc(Cl)cc2Cl)c(=O)[nH]1` [Compound 6, 5-(4-bromophenyl)-7-(2,4-dichlorophenyl)-2-methyl-3,7-dihydro-4H-pyrrolo[2,3-d]pyrimidin-4-one]: the half-maximal inhibitory concentration (IC50) in data set [3] came to 31.1 ± 0.9 µg/mL (≈ 69.2 µM); in data set [1], 40 ± 1 µg/mL (≈ 89.1 µM); in the data set with MCF7 breast cancer cells it was 15.2 ± 0.9 µg/mL (≈ 33.8 µM); in data set [2], 31.2 ± 0.9 µg/mL (≈ 69.5 µM). Besides, the cytotoxicity at 100 µg/mL (in data set [3]; in data set [1]; in the data set with MCF7 breast cancer cells; in data set [2]) was 100% in each case. The cytotoxicity at 72 h, 100 μg/ml in data set [4] stood at 84.9 ± 0.7%.

As for `COc1ccc(-c2cn(-c3ccc(Cl)cc3Cl)c3nc[nH]c(=O)c23)cc1OC` [Compound 3b, 7-(2,4-dichlorophenyl)-5-(3,4-dimethoxyphenyl)-3,7-dihydro-4H-pyrrolo[2,3-d]pyrimidin-4-one], the cytotoxicity at 100 µg/mL with A549 lung cancer cells (Homo sapiens, A549, 72 h) stood at 8.5 ± 0.6%; in data set [3], 15.6 ± 1.3%; in data set [1] it was 76.3 ± 1.8%; with HePG2 liver cancer cells, 10.4 ± 1.7%; in the data set on MCF7 breast cancer cells, 11.5 ± 0.8%; in data set [2], 14.6 ± 0.1%. Besides, in data set [1], the IC50 is 69.7 ± 1.3 µg/mL (≈ 167 µM). For the same compound, the cytotoxicity at 72 h, 100 μg/ml in data set [4] worked out at 3.5 ± 0.9%.

As for `NNc1nc(C(Cl)(Cl)Cl)nc2c1c(-c1ccc(Br)cc1)c(Cl)n2-c1ccc(Cl)cc1Cl` [Compound 15, 5-(4-bromophenyl)-6-chloro-7-(2,4-dichlorophenyl)-4-hydrazineyl-2-(trichloromethyl)-7H-pyrrolo[2,3-d]pyrimidine], the IC50 is 54 ± 1.7 µg/mL (≈ 89.9 µM) with A549 lung cancer cells (Homo sapiens, A549, 72 h, read-out: IC50 A549); 29.1 ± 0.5 µg/mL (≈ 48.4 µM) in the data set with HePG2 liver cancer cells; 42.8 ± 0.6 µg/mL (≈ 71.2 µM) with MCF7 breast cancer cells. Besides, the cytotoxicity at 100 µg/mL in the data set on A549 lung cancer cells (Homo sapiens, A549, 72 h) was 80 to 90%; in data set [3], 65.9 ± 2.4%; in data set [1], 100%; with HePG2 liver cancer cells, 100%; in the data set with MCF7 breast cancer cells it was 81.2 ± 0.8%; in data set [2], 100%. Further, the cytotoxicity in the data set on A549 lung cancer cells (read-out: MTT cell proliferation mortality assay (%) A549, at 100 μg/ml, 72 h) is 84.6 ± 0.4%; in the data set with MCF7 breast cancer cells, 80 to 95%. In data set [4], the cytotoxicity at 72 h, 100 μg/ml worked out at 4.5 ± 0.3%.

Take `Clc1ccc(-n2c(Cl)c(-c3ccc(Br)cc3)c3c(Cl)nc(C(Cl)(Cl)Cl)nc32)c(Cl)c1` [Compound 7, 5-(4-bromophenyl)-4,6-dichloro-7-(2,4-dichlorophenyl)-2-(trichloromethyl)-7H-pyrrolo[2,3-d]pyrimidine]: the cytotoxicity at 100 µg/mL was found to be 14.2 ± 0.8% in the data set with A549 lung cancer cells (Homo sapiens, A549, 72 h); 54.2 ± 1.6% in data set [3]; 100% in data set [1]; 100% in the data set on MCF7 breast cancer cells; 100% in data set [2]. The IC50 in the data set with MCF7 breast cancer cells was 16.2 ± 1.6 µg/mL (≈ 26.8 µM). For the same compound, the cytotoxicity at 72 h, 100 μg/ml in data set [4] stood at 100%.

As for `Clc1ccc(-n2c(Cl)c(-c3ccc(Br)cc3)c3c(N4CCCC4)nc(C(Cl)(Cl)Cl)nc32)c(Cl)c1` [Compound 10, 5-(4-bromophenyl)-6-chloro-7-(2,4-dichlorophenyl)-4-(pyrrolidin-1-yl)-2-(trichloromethyl)-7H-pyrrolo[2,3-d]pyrimidine], the cytotoxicity at 100 µg/mL came to 10.2 ± 0.5% with A549 lung cancer cells (Homo sapiens, A549, 72 h); 100% in data set [3]; 100% in data set [1]; 100% in the data set on MCF7 breast cancer cells; 100% in data set [2]. For the same compound, the IC50 in data set [3] worked out at 11.6 ± 0.8 µg/mL (≈ 18.1 µM); in the data set on MCF7 breast cancer cells, 61.1 ± 1.4 µg/mL (≈ 95.5 µM); in data set [2] it was 26.9 ± 0.6 µg/mL (≈ 42 µM). Also, in data set [4], the cytotoxicity at 72 h, 100 μg/ml was found to be 100%.

On to `COc1ncnc2c1c(-c1ccc(Br)cc1)c(Cl)n2-c1ccc(Cl)cc1Cl` [Compound 9a, 5-(4-bromophenyl)-6-chloro-7-(2,4-dichlorophenyl)-4-methoxy-7H-pyrrolo[2,3-d]pyrimidine], for which the cytotoxicity at 100 µg/mL came to 58.6 ± 1.3% in the data set with A549 lung cancer cells (Homo sapiens, A549, 72 h); 53.8 ± 0.3% in data set [3]; 1.3 ± 0.2% in data set [1]; 75.2 ± 3.6% in the data set with MCF7 breast cancer cells; 52.1 ± 0.8% in data set [2]. Moreover, in data set [4], the cytotoxicity at 72 h, 100 μg/ml stood at 37.8 ± 0.6%.
